Our source for the inhibition values is ChEMBL document CHEMBL2163249, “Exploration of natural compounds as sources of new bifunctional scaffolds targeting cholinesterases and beta amyloid aggregation: the case of chelerythrine” (Bioorg Med Chem, 2012).

Each structure is given as a SMILES string.

Usually inhibition stands for the relative decrease from the control value, in per cent.

For experiment [1], the target named is Cholinesterase (Equus caballus) (UniProt P81908). The following applies: at 2 mg/mL.
Description: Inhibition of horse BChE at 2 mg/ml by Ellman's method
The target of experiment [2] is Acetylcholinesterase (Electrophorus electricus) (UniProt O42275). The following applies: at 2 mg/mL.
Chain of Acetylcholinesterase (Electrophorus electricus) (O42275 24-633 limits assumed): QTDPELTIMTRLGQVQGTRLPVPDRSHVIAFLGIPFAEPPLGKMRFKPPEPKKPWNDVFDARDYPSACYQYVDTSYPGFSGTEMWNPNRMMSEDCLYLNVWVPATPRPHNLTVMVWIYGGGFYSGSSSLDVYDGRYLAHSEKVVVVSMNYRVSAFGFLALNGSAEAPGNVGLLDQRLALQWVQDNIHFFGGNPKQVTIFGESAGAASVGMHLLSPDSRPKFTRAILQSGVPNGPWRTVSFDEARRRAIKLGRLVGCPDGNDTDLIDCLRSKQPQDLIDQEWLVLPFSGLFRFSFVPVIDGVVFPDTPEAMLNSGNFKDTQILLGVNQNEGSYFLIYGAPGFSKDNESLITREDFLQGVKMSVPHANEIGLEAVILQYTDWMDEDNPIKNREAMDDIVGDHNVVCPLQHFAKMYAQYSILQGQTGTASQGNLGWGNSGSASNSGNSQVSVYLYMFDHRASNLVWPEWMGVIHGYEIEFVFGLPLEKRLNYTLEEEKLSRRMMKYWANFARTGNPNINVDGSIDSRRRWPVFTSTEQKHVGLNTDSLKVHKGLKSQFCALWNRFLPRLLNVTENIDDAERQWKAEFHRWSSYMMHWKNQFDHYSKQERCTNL
Description: Inhibition of electric eel AChE at 2 mg/ml by Ellman's method

Chain of Cholinesterase (Equus caballus) (P81908 whole entry): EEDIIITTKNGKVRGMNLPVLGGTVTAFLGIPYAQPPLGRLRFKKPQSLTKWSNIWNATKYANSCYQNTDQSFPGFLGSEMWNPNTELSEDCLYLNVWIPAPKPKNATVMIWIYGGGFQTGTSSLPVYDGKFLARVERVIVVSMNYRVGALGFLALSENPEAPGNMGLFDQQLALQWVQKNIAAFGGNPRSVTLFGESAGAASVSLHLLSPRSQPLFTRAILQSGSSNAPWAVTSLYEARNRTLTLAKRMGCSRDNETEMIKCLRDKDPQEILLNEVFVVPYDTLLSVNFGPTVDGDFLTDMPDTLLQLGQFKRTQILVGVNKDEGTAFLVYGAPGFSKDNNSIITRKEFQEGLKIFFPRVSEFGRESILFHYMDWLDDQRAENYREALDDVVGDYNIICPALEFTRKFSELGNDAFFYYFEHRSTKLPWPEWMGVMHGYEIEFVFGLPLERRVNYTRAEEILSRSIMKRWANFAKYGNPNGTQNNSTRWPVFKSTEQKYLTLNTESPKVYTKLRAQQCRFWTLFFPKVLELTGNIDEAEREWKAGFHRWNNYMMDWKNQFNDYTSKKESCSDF

As for `C[C@H]1[C@H](C)CC[C@]2(C(=O)O)CC[C@]3(C)C(=CC[C@@H]4[C@@]5(C)C[C@@H](O)[C@H](O)[C@@](C)(CO)[C@@H]5CC[C@]43C)[C@H]12`, the results for the inhibition in experiment [1] and in experiment [2] were -8.64% and 3.99%, respectively.
On to `CCN1C[C@]2(C)CC[C@H](O)[C@]34C1[C@@H](C[C@H]23)[C@@]1(O)C[C@H](OC)[C@H]2C[C@@H]4[C@@H]1[C@H]2O`, for which the figures for the inhibition in experiment [1] and in experiment [2] were -5.97% and 20%, respectively.
Consider `O=c1c(O)c(-c2cc(O)c(O)c(O)c2)oc2cc(O)cc(O)c12`, for which the inhibition in experiment [1] was -3.14%; in experiment [2] it was 4.65%.
As for `COc1cc(CNC(=O)CCCC/C=C/C(C)C)ccc1O`, the inhibition in experiment [1] is 6.29%; in experiment [2], -6.53%.
Consider `C[N+]1([O-])[C@@H]2C[C@H](OC(=O)[C@H](CO)c3ccccc3)C[C@@H]1[C@H]1O[C@H]12` (stereo partly specified), for which the inhibition was -1.85% in experiment [1] and -6.51% in experiment [2].
As for `C=C[C@H]1CN2CC[C@H]1C[C@H]2[C@H](O)c1ccnc2ccc(OC)cc12`, the inhibition in experiment [1] was 24.7%; in experiment [2], 15.8%.
On to `CN(C)CCc1ccc(O)cc1`, for which the values for the inhibition in experiment [1] and in experiment [2] were -2.06% and -4.35%, respectively.
Taken in the same sequence, the figures for `COc1cc(C(=O)O[C@H]2C[C@@H]3CC[C@]2(C)C3(C)C)ccc1O` were 1.44% and 25.2%.
As to `CCCCC[C@H](O)/C=C/[C@H]1[C@H](O)CC(=O)[C@@H]1C/C=C\CCCC(=O)O`, the inhibition is -2.38% in experiment [1] and 14.8% in experiment [2].
As to `C[C@@]12C(=O)OC(=O)[C@]1(C)[C@H]1CC[C@@H]2O1`, the inhibition is -2.13% in experiment [1] and -7.81% in experiment [2].
As to `Cn1cnc2c1c(=O)[nH]c(=O)n2C`, the values for the inhibition in experiment [1] and in experiment [2] were 3.88% and 39.4%, respectively.
On to `COc1cc(O)c(C(=O)/C=C/c2ccccc2)c(OC)c1`, for which the inhibition was found to be 4.56% in experiment [1] and 27.1% in experiment [2].
With `COc1cc(/C=C/C(=O)c2ccc(O)cc2O)ccc1O`, the inhibition was -0.11% in experiment [1] and 26.5% in experiment [2].
For the compound `CC[C@H]1CC[C@@]2(C)CN(CC)[C@@H]3[C@@H]4[C@@H](O)[C@H]2[C@@]13[C@@H]1C[C@@H]2CC[C@@]4(O)[C@H]1C(=O)O2`, the inhibition in experiment [1] was -3.58%; in experiment [2] it was 22.5%.
Turning to `C=C1C(=O)O[C@@H]2C3O[C@]3(C)CC/C=C(\C)CC[C@@H]12` (stereo partly specified), the values for the inhibition in experiment [1] and in experiment [2] were 14% and -5.29%, respectively.
For the compound `COc1c2c3c4c(c(OC)c(=O)c5c(O)cc(OC)c(c6c(OC)cc(O)c(c1=O)c63)c54)[C@@H](C(C)=O)[C@@](C)(O)C2` (relative stereo), the inhibition in experiment [1] came out at 1.53%; in experiment [2], 5.56%.
Turning to `CO[C@@H]1[C@@H](OC)[C@H](C)[C@@](O)(CC(=O)O)O[C@H]1[C@H](C)[C@H]1O[C@@]2(CC[C@@](C)([C@H]3CC[C@@](C)([C@@H]4O[C@@H]([C@H]5O[C@](C)(O)[C@H](C)C[C@@H]5C)C[C@@H]4O[C@@H]4C[C@H](OC)[C@@H](OC)[C@H](C)O4)O3)O2)C[C@H](O)[C@H]1C`, the figures for the inhibition in experiment [1] and in experiment [2] were -3.8% and 22.7%, respectively.
The corresponding values for `CC[C@H](C)/C=C(C)/C=C/C1=CC2=C(Cl)C(=O)[C@](C)(OC(C)=O)C(=O)C2=CO1` are 6.21% and 3.54%.
Turning to `CC[C@]12CCCN3CCc4c(n(c5ccccc45)C(=O)C1)[C@@H]32`, the inhibition in experiment [1] was 0.04%; in experiment [2] it was 12.1%.
For the compound `N[C@@H](Cn1oc(=O)[nH]c1=O)C(=O)O`, the inhibition in experiment [1] is 2.65%; in experiment [2], 23.1%.
Regarding `CC(=O)OC[C@]12CCC(C)=C[C@H]1O[C@@H]1[C@H](O)[C@@H](OC(C)=O)[C@@]2(C)[C@]12CO2`, the results for the inhibition in experiment [1] and in experiment [2] were 12.3% and 23.8%, respectively.
Consider `COc1ccc2c(c1OC)C(=O)O[C@H]2[C@@H]1c2cc3c(cc2CCN1C)OCO3`, for which the results for the inhibition in experiment [1] and in experiment [2] were -1.4% and 9.75%, respectively.
For the compound `CCCC[N+]1(C)[C@@H]2C[C@@H](OC(=O)[C@H](CO)c3ccccc3)C[C@H]1[C@@H]1O[C@@H]12` (stereo partly specified), the figures for the inhibition in experiment [1] and in experiment [2] were -4.42% and 22.5%, respectively.
